Experimental data as given in ChEMBL document CHEMBL3044664, “Synthesis of coumarin-based 1,3,4-oxadiazol-2ylthio-N-phenyl/benzothiazolyl acetamides as antimicrobial and antituberculosis agents” (2013).
Converted amounts (≈) assume the structure as drawn.

Tests used:
Format in all cases: functional
[1] = tested on: Mycobacterium tuberculosis; assay: Antitubercular activity against Mycobacterium tuberculosis H37Rv assessed as growth inhibition at MIC by BACTEC MGIT method
[2] = tested on: Mycobacterium tuberculosis; assay: Antitubercular activity against Mycobacterium tuberculosis H37Rv assessed as growth inhibition by BACTEC MGIT method
Candida albicans = assay: Antifungal activity against Candida albicans MTCC 183 assessed as growth inhibition by agar streak dilution method
Proteus vulgaris = assay: Antibacterial activity against Proteus vulgaris MTCC 1771 assessed as growth inhibition by agar streak dilution method
Aspergillus clavatus = assay: Antifungal activity against Aspergillus clavatus MTCC 1323 assessed as growth inhibition by agar streak dilution method
[3] = tested on: Mycobacterium tuberculosis; assay: Antitubercular activity against Mycobacterium tuberculosis H37Rv assessed as growth inhibition at MIC by Lowenstein-Jensen method
Shigella flexneri = assay: Antibacterial activity against Shigella flexneri MTCC 1457 assessed as growth inhibition by agar streak dilution method
Staphylococcus aureus = assay: Antibacterial activity against Staphylococcus aureus MTCC 96 assessed as growth inhibition by agar streak dilution method
Klebsiella pneumoniae = assay: Antibacterial activity against Klebsiella pneumoniae MTCC 109 assessed as growth inhibition by agar streak dilution method
Bacillus cereus = assay: Antibacterial activity against Bacillus cereus MTCC 430 assessed as growth inhibition by agar streak dilution method
Salmonella typhi = assay: Antibacterial activity against Salmonella enterica subsp. enterica serovar Typhi MTCC 733 assessed as growth inhibition by agar streak dilution method
[4] = tested on: Mycobacterium tuberculosis; assay: Antitubercular activity against Mycobacterium tuberculosis H37Rv assessed as growth inhibition by Lowenstein-Jensen method
Escherichia coli = assay: Antibacterial activity against Escherichia coli MTCC 739 assessed as growth inhibition by agar streak dilution method
Pseudomonas aeruginosa = assay: Antibacterial activity against Pseudomonas aeruginosa MTCC 741 assessed as growth inhibition by agar streak dilution method
Aspergillus fumigatus = assay: Antifungal activity against Aspergillus fumigatus MTCC 343 assessed as growth inhibition by agar streak dilution method
Aspergillus niger = assay: Antifungal activity against Aspergillus niger MTCC 282 assessed as growth inhibition by agar streak dilution method

Structure (SMILES) | growth inhibition (GI) [1] [%] | MIC [2] [µg/mL] | MIC (Candida albicans) [µg/mL] | MIC (Proteus vulgaris) [µg/mL] | MIC (Aspergillus clavatus) [µg/mL] | growth inhibition (GI) [3] [%] | MIC (Shigella flexneri) [µg/mL] | MIC (Staphylococcus aureus) [µg/mL] | MIC (Klebsiella pneumoniae) [µg/mL] | MIC (Bacillus cereus) [µg/mL] | MIC (Salmonella typhi) [µg/mL] | MIC [4] [µg/mL] | MIC (Escherichia coli) [µg/mL] | MIC (Pseudomonas aeruginosa) [µg/mL] | MIC (Aspergillus fumigatus) [µg/mL] | MIC (Aspergillus niger) [µg/mL]
CO[C@H]1/C=C/O[C@@]2(C)Oc3c(C)c(O)c4c(O)c(c(/C=N/N5CCN(C)CC5)c(O)c4c3C2=O)NC(=O)/C(C)=C\C=C\[C@H](C)[C@H](O)[C@@H](C)[C@@H](O)[C@@H](C)[C@H](OC(C)=O)[C@@H]1C [RIFAMPIN] | 99 | 0.25 (≈ 0.304 µM) |  |  |  |  |  |  |  |  |  |  |  |  |  | 
NNC(=O)c1ccncc1 [ISONIAZID] | 99 | 0.2 (≈ 1.46 µM) |  |  |  |  |  |  |  |  |  |  |  |  |  | 
NC(=O)c1cnccn1 [PYRAZINAMIDE] | 99 | 6.25 (≈ 50.8 µM) |  |  |  |  |  |  |  |  |  |  |  |  |  | 
CC[C@@H](CO)NCCN[C@@H](CC)CO [ETHAMBUTOL] | 99 | 3.12 (≈ 15.3 µM) |  |  |  |  |  |  |  |  |  |  |  |  |  | 
O=C(CSc1nnc(-c2cc3ccccc3oc2=O)o1)Nc1nc2ccc(I)cc2s1 |  | > 6.25 | 100 (≈ 178 µM) | > 100 | 100 (≈ 178 µM) | 97 | 100 (≈ 178 µM) | 100 (≈ 178 µM) | 100 (≈ 178 µM) | 100 (≈ 178 µM) | 100 (≈ 178 µM) | 100 (≈ 178 µM) | 50 (≈ 88.9 µM) | > 100 | 100 (≈ 178 µM) | 100 (≈ 178 µM)
COc1ccc2nc(NC(=O)CSc3nnc(-c4cc5ccccc5oc4=O)o3)sc2c1 |  | > 6.25 | 50 (≈ 107 µM) | 25 (≈ 53.6 µM) | 25 (≈ 53.6 µM) | 98 | 50 (≈ 107 µM) | 25 (≈ 53.6 µM) | 100 (≈ 214 µM) | 50 (≈ 107 µM) | 25 (≈ 53.6 µM) | 25 (≈ 53.6 µM) | 100 (≈ 214 µM) | 50 (≈ 107 µM) | 100 (≈ 214 µM) | 50 (≈ 107 µM)
CC(=O)Nc1ccc2nc(NC(=O)CSc3nnc(-c4cc5ccccc5oc4=O)o3)sc2c1 |  | > 6.25 | > 100 | > 100 | 12.5 (≈ 25.3 µM) | 96 | 100 (≈ 203 µM) | 50 (≈ 101 µM) | 100 (≈ 203 µM) | 100 (≈ 203 µM) | 100 (≈ 203 µM) | 100 (≈ 203 µM) | 100 (≈ 203 µM) | 12.5 (≈ 25.3 µM) | > 100 | 100 (≈ 203 µM)
